Results on two molecules are retold here after patent US9394295B2, “Antibacterial homopiperidinyl substituted 3,4-dihydro-1H-[1,8]naphthyridinones” (Janssen Sciences Ireland UC, priority 2011, dated 2016).

SMILES strings stand for the structures. Converted amounts (≈) assume the structure as drawn. Some results are limits rather than exact numbers.

The MIC90 is the lowest concentration that inhibits either 90% of growth or 90% of the strains tested, depending on the study. Read a high MIC90 as lower susceptibility. As usually defined, the IC50 is the concentration at which inhibition is half-maximal. The term IC90 denotes the concentration needed for an effect of 90%. By CC50 is commonly meant the concentration giving 50% cytotoxicity.

The subject of one data set is E. coli tolC mutant. In words: MIC broth microdilution (CLSI), E. coli tolC mutant. The class given is cell-based. Conditions: Escherichia coli. As to the method:
(§1) Minimum Inhibitory Concentrations (MICs) were determined in accordance with the Clinical and Laboratory Standards Institute (CLSI) methodology against aerobic bacteria (CLSI M07-A8) (see Clinical and Laboratory Standards Institute. 2009. Methods for dilution antimicrobial susceptibility tests for bacteria that grow aerobically. CLSI document M07-A8, Vol. 29, No. 2.) by the broth microdilution method with cation-adjusted Mueller-Hinton broth (CA-MHB) medium for the majority of organisms, except for Haemophilus influenza, where Haemophilis test medium (HTM) broth was used. Descriptions of the individual organisms can be found in the table. Where possible, ATCC standard strains were tested.
(§2) The inoculum density for the susceptibility testing was standardized to give a final inoculum of approximately 5×10^5 CFU/mL.
(§3) Stock solutions of the compounds were prepared in DMSO at concentrations of 1 mg/mL. Linezolid was prepared in DMSO at a concentration of 2 mg/mL. Stock solutions of all compounds were diluted into CA-MHB to give a range of two-fold dilutions, depending upon the sensitivity of the organism being tested.
On the technique in general: Broth dilution looks for growth in wells or tubes with falling amounts of substance.

Data set [1] concerns the target T1, S. aureus ATCC 29213 FabI (Staphylococcus aureus, UniProt Q6GI75).
T1 sequence (Q6GI75 1-256): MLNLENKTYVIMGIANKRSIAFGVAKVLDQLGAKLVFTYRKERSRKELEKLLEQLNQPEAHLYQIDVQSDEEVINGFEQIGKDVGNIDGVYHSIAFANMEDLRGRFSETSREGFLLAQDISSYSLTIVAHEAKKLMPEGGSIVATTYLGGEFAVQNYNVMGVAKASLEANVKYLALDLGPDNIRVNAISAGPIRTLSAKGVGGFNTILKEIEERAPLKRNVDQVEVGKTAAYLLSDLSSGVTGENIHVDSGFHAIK
In words: Staphylococcus aureus FabI enzyme inhibition assay. Conditions: 30 minutes at room temperature, NADH consumption. The data set is classed as biochemical. As to the method:
FabI enzyme inhibition assays were carried out in half-area, 384-well microtitre plates. Compounds were evaluated in 40-μl assay mixtures containing 100 mM NaADA, pH 6.5 (ADA=N-[2-acetamido]-2iminodiacetic acid), 250 μM crotonoyl-CoA, 625 μM NADH and 50 μg/ml S. aureus ATCC 29213 FabI Inhibitors were typically varied over the range of 50 to 0.39 μM. The reaction mixtures were incubated for 30 minutes at room temperature and the reaction was stopped by adding 200 mM Tris buffer (pH 9.0) to create a pH-shift. The consumption of NADH was monitored by measuring the change in absorbance at […]. By comparing sample readings to those of negative (absence of compound) and positive (absence of enzyme) controls, the percent inhibition of enzymatic activity of the compounds was determined. A best-fit curve is fitted by a minimum of squares method. From this an IC50-value (expressed in μg/ml), resulting in 50% inhibition of enzymatic activity, was obtained.

Another data set deals with E. coli ATCC 25922. In words: MIC broth microdilution (CLSI), E. coli ATCC 25922. The data set is classed as cell-based. Conditions: Escherichia coli, ATCC25922. As to the method: as §1, §2, §3
The next data set concerns S. aureus ATCC 29213. The data set can be described thus: MIC broth microdilution (CLSI), S. aureus ATCC 29213. The data set is classed as cell-based. The note with it: Staphylococcus aureus, ATCC 29213 / MSSA, reference strain MSSA. As to the method: as §1, §2, §3
The next data set relates to S. aureus. The data set can be described thus: Antibacterial susceptibility testing: IC90 determination with 10% human serum (STA + 10% HS). The class given is cell-based. Conditions: Staphylococcus aureus; S. aureus with human serum at final concentration of 10%; read-out: STA + 10% HS (361.169) IC90. The method, then: The following bacteria were used: Staphylococcus aureus ATCC 29213, methicillin-resistant Staphylococcus aureus (MRSA) ATCC 700788 and Escherichia coli ATCC 35218. The bacteria used in this study were grown overnight in flasks containing 100 ml Mueller-Hinton broth (Difco cat. nr. 0757-17) in sterile de-ionized water, with shaking, at 37° C. Stocks were store at −70° C. until use.
Bacteria were incubated on a tryptic soy agar plate containing 5% sheep blood (Becton Dickinson cat. nr. 254053) for 18-24 hours at 35° C. in aerobic conditions (first passage). For the second passage, fresh Mueller-Hinton broth is inoculated with 5-10 colonies and grown overnight at 35° C. until turbidity (reaching log-phase) in aerobic conditions is reached. The bacterial suspension is then adjusted to 0.5 McFarland density and further diluted 1:100 in Mueller Hinton broth medium. This is used as inoculum.
MIC assays were performed by the broth microdilution method in a 96-well format (flat-bottom microtitre plates) with a final volume of 0.1 ml Mueller Hinton broth containing two-fold serial dilutions of compounds and inoculated with 5×10^5 CFU/ml of bacteria (standard inoculum size according to CLSI guidelines). Inhibitors are typically varied over the range of 63 to 0.49 μM. The final DMSO concentration in the assay was 1.25% (maximum tolerable DMSO concentration=6%). In the assays where the effect of human serum on the activity of the compounds against S. aureus was tested, human serum was added at a final concentration of 10%. The plates were incubated at 35° C. for 16-20 hours. At the end of incubation the bacterial growth was quantified fluorometrically. For this, resazurin was added to all wells and the plates were re-incubated. The incubation time is dependent on the type of bacteria. A change in color from blue to pink indicated the growth of bacteria. The fluorescence was read in computer-controlled fluorometer (Fluoroskan Ascent FL, Labsystems) at an excitation wavelength 540 nm and an emission wavelength of 590 nm. The % growth inhibition achieved by the compounds was calculated according to standard methods. The IC90 (expressed in μg/ml) was defined as the 90% inhibitory concentration for bacterial growth. A panel of reference compounds were simultaneously tested for QC approval.
The results are depicted in the table D2 below (STA+10% HS).

The test system of another data set is S. aureus NRS120. In words: MIC broth microdilution (CLSI), S. aureus NRS120. Conditions: Staphylococcus aureus, LZD-R. The class given is cell-based. The method, then:
as §1, §2, §3

Data set [2] is described as follows: Cytotoxicity MTT assay (TOX HELAM). The data set is classed as cell-based. Conditions: human, HelaM cells, read-out: TOX HELAM (222.125) CC50. As to the method: Cytotoxicity of the compounds was evaluated using the MTT assay. Human HelaM cells grown in 96-well plates were exposed to serial dilutions of the tested compounds (final volume of 0.2 ml) and incubated for 72 hours at 37° C. and 5% CO2. Inhibitors are typically varied over the range of 25 to 0.8 μM. The final DMSO concentration in the assay is 0.5%. MTT (3-(4,5-Dimethylthiazol-2-yl)-2,5-diphenyltetrazolium bromide, a tetrazole) was added and reduced to purple formazan only in living cells. Solubilization of the formazan crystals was achieved by adding 100 μl 2-propanol. Cell viability was determined by measuring the absorbance of the reduced formazan, giving a purple color, at 540 nm and 690 nm. The absorbance measured at 690 nm was automatically subtracted from the absorbance at 540 nm, to eliminate the effects of non-specific absorption. The percent cytotoxicity achieved by the compounds was calculated according to standard methods. Cytotoxicity is reported as CC50, the concentration that causes a 50% reduction in cell viability.
The results are depicted in the table D2 below (TOX HELAM).
For orientation: Tetrazolium assays rely on reduction of a dye to a coloured formazan, in cell work by metabolically active cells.

Take `O=C1CCc2cc(/C=C/C(=O)N3CCC=C(c4ccccc4)CC3)cnc2N1` [Co. No. 2]: the MIC90 was 0.25 µg/mL (≈ 0.669 µM) in the data set on E. coli tolC mutant, over 32 µg/mL in the data set with E. coli ATCC 25922, 0.06 µg/mL (≈ 0.161 µM) in the data set on S. aureus ATCC 29213 and 0.06 µg/mL (≈ 0.161 µM) in the data set with S. aureus NRS120. This molecule also gave an IC50 in data set [1] of 884 nM. The IC90 in the data set with S. aureus was 0.33 µg/mL. Moreover, in data set [2], the CC50 at 72 h was over 9.38 µg/mL.
For `COc1ccc(F)cc1C1=CCCN(C(=O)/C=C/c2cnc3c(c2)CCC(=O)N3)CC1` [Co. No. 27], the MIC90 with E. coli tolC mutant is over 8 µg/mL; against E. coli ATCC 25922 it was over 8 µg/mL; in the data set on S. aureus ATCC 29213, 0.06 µg/mL (≈ 0.142 µM); in the data set on S. aureus NRS120, 0.125 µg/mL (≈ 0.297 µM). The molecule also showed an IC50 in data set [1] of 1070 nM. Moreover, the IC90 with S. aureus was 0.33 µg/mL. The CC50 at 72 h in data set [2] is over 10.6 µg/mL.
